Test results as given in PMC10916400, “Effect of the aggregated protein dye YAT2150 on Leishmania parasite viability” (Antimicrobial Agents and Chemotherapy, 2024).

Legend:
[1] = test system: L. infantum promastigotes; assay: microbe, parasite or virus in culture; format: cell-based, Leishmania infantum; details: L. infantum promastigotes; for IC50: in vitro
Description: L. infantum (MHOM/ES/2016/CATB101) promastigotes were maintained at 26°C in complete Schneider’s medium (Schneider’s insect medium supplemented with 10% FBS, 25 µg/mL gentamycin, 1% penicillin-streptomycin, and 1% sterile human urine, pH 6.7). For growth inhibition assays, promastigotes were used in the logarithmic growth phase, whereas for the infection of macrophages and generation of amastigotes they were used in the stationary phase. Axenic amastigotes were obtained following established protocols ([40], [57][–][59]); briefly, 1 × 10^7 promastigotes/mL in stationary phase were cultured in Schneider’s insect medium supplemented with 20% FBS, 25 µg/mL gentamycin, and 3.9 g/L of 2-(N-morpholino)ethanesulfonic acid, at pH 5.4 and 37°C. After 48 h, the typical rounded morphology of axenic amastigotes and their flagellum shortening could be observed. This culture was used within a week after its preparation.
In 96-well microtiter plates (Nunclon Delta surface; Thermo Fisher Scientific Inc.), serial dilutions (1:2) of the drugs or peptides were performed, either free or loaded in nanoformulations, in 100 µL of complete Schneider’s medium, to which one volume of 2 × 10^6 logarithmic growth-phase L. infantum promastigotes/mL in the same buffer was added. After 48 h, resazurin sodium salt was incorporated at a final concentration of 0.00125% and the plates were incubated at 26°C for another 24 h, when fluorescence from resorufin was measured as described above.

CYP2C9 = biological target: T1, CYP2C9 (Homo sapiens, UniProt P11712); assay: Cytochrome inhibition activity assay; format: biochemical; details: probe 7-methoxy-4-(trifluoromethyl)coumarin, human recombinant enzyme, 37°C
T1 construct: host or cells: baculovirus-infected insect cells (microsomes)
Description: (§1) To screen the inhibition potential of the compounds using recombinant human cytochrome P450 enzymes (CYP1A2, CYP2C9, CYP2C19, and CYP2D6) and probe substrates with fluorescent detection, incubations were conducted in a 200-µL volume in 96-well microtiter plates (Costar #3915; Corning Inc.). Addition of cofactor-buffer mixture (0.2 M KH2PO4 buffer, 1.3 mM NADP, 3.3 mM MgCl2, 3.3 mM glucose-6-phosphate, and 0.4 U/mL glucose-6-phosphate dehydrogenase), previously diluted control Supersomes (insect cell control for Supersomes enzymes, baculovirus-insect cell-expressed; Corning Inc.), standard inhibitors (furafylline, tranylcypromine, sulfaphenazole, and quinidine), and test compounds was carried out by a Zephyr liquid handling station (Caliper Life Sciences, Hopkinton, MA, US). The plate was then pre-incubated at 37°C for 5 min, and the reaction was initiated by the addition of pre-warmed enzyme/substrate mix, which contained buffer (KH2PO4), cDNA-expressed P450 in insect cell microsomes, substrate (3-cyano-7-ethoxycoumarin for CYP1A2 and CYP2C19, 7-methoxy-4-(trifluoromethyl)coumarin for CYP2C9, and 3-[2-(N,N-diethyl-N-methylammonium)ethyl]-7-methoxy-4-methylcoumarin for CYP2D6) to obtain the final assay concentrations in a reaction volume of 200 µL. Reactions were terminated after a specific time for each cytochrome by the addition of stop solution (ACN:0.5 M tris-HCl, 80:20 vol/vol). Fluorescence in each well was measured using a fluorescence plate reader (EnVision 2104 multilabel plate reader; PerkinElmer, Waltham, MA, US), and percentage of inhibition was calculated.

CYP2C19 = biological target: T2, CYP2C19 (Homo sapiens, UniProt P33261); assay: Cytochrome inhibition activity assay; format: biochemical; details: human recombinant enzyme, 37°C
T2 construct: host or cells: baculovirus-infected insect cells (microsomes)
Description: as §1

CYP1A2 = biological target: T3, CYP1A2 (Homo sapiens, UniProt P05177); assay: Cytochrome inhibition activity assay; format: biochemical; details: probe 3-cyano-7-ethoxycoumarin, human recombinant enzyme, 37°C
T3 construct: host or cells: baculovirus-infected insect cells (microsomes)
T3 sequence (P05177 1-516): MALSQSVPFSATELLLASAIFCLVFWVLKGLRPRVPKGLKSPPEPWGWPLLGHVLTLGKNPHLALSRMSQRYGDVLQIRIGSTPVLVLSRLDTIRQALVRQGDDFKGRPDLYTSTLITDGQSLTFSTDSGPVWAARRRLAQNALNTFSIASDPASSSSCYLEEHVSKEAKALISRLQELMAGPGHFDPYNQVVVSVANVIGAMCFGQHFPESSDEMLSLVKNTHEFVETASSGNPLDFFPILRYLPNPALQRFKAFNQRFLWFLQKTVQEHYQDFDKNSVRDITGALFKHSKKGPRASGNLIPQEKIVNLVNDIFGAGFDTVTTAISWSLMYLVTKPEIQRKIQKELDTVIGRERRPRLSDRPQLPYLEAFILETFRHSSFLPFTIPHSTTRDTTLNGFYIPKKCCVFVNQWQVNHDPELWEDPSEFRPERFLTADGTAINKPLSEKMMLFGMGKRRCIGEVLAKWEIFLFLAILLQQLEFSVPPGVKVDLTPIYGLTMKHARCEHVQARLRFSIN
Description: as §1

CYP2D6 = biological target: T4, CYP2D6 (Homo sapiens, UniProt P10635); assay: Cytochrome inhibition activity assay; format: biochemical; details: human recombinant enzyme, 37°C
T4 construct: host or cells: baculovirus-infected insect cells (microsomes)
Description: as §1

[2] = Human hepatocyte stability assay; format: in vitro ADME; details: 37°C
Description: A vial of human hepatocytes (100 donor pool HCP100.H15/Lot: 2010012; XenoTech, Kansas City, KS, US) was removed from the liquid nitrogen tank and immersed into a water bath. When only a small ice crystal remained, the cell suspension was transferred to a tube with the preheated suspension medium (OptiThaw hepatocyte medium, K8000; XenoTech). After a brief centrifugation at 100 × g for 5 min, hepatocytes were gently resuspended with incubation medium (OptiIncubate hepatocyte medium, K8400; XenoTech) and counted, and viability was determined using trypan blue staining. One-micromolar compounds were incubated at 37°C and 5% CO2 in the presence of 0.5 × 10^6 hepatocytes in a 500-µL incubation volume. Aliquots were taken, and reactions were terminated with ACN at each of the six sampling time points (0, 15, 30, 60, 90, and 120 min). The samples were centrifuged, and the remaining compound was determined by UPLC-MS/MS analysis as above. Intrinsic clearance was calculated from the logarithm of the remaining compound at each of the times evaluated.

T1 sequence (P11712 whole entry): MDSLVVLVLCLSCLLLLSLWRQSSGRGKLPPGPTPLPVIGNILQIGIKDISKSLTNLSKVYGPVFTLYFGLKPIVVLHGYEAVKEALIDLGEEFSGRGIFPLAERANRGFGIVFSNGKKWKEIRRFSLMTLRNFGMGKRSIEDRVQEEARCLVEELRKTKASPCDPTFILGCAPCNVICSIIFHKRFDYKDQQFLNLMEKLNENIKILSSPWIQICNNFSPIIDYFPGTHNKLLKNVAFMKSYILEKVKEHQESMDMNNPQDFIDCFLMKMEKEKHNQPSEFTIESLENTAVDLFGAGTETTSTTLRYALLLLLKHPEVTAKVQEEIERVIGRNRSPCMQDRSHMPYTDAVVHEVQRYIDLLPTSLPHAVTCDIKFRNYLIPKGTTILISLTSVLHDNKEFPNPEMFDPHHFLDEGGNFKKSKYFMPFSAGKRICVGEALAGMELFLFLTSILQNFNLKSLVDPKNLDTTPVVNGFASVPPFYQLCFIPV
T4 sequence (P10635 whole entry): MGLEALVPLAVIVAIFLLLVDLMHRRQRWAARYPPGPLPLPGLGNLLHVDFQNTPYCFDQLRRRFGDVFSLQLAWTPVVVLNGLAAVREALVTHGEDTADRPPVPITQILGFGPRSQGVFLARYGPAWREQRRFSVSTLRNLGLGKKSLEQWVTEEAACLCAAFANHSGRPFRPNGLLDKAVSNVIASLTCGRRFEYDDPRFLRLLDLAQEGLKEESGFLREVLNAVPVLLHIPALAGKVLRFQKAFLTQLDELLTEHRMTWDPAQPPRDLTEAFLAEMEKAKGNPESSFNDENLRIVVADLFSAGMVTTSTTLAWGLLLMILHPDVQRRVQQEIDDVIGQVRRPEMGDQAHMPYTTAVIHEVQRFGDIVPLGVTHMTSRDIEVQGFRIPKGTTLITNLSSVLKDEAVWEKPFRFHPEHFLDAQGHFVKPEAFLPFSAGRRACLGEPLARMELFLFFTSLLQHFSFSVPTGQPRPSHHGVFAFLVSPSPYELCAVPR
T2 sequence (P33261 whole entry): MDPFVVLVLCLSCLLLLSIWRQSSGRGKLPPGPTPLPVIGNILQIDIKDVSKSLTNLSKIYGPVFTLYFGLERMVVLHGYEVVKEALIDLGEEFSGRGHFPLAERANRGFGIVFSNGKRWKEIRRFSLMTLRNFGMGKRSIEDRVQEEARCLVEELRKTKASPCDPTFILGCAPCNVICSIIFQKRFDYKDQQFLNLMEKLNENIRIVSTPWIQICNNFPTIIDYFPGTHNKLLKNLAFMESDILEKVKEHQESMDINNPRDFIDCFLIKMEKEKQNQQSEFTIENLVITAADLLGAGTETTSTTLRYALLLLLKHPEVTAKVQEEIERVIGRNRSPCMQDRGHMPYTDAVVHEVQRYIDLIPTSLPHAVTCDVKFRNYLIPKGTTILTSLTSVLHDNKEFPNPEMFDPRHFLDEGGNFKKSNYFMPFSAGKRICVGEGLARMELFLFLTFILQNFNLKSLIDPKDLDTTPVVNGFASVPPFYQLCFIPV

Structure (SMILES): CCN(CC)c1ccc(/C=C/c2cc[n+](CCCCCCCCCC[n+]3ccc(/C=C/c4ccc(N(CC)CC)cc4)c(C)c3)cc2C)cc1 [YAT2150]
- in vitro IC10 [1]: 150 nM
- in vitro IC40 [1]: 300 nM
- IC50 [1]: ~500 nM
- IC50 ([1]; Leishmania infantum): ~520 nM
- inhibition at 10 µM (CYP2C9): ~50%
- IC50 (CYP2C19): 1100 nM
- inhibition at 10 µM (CYP1A2): ~50%
- IC50 (CYP2D6): 1700 nM
- hepatocyte CLint at 1 µM ([2]; hepatocytes (cryopreserved, 100 donor pool)): 2.5 µL/min/1e6 cells
- t1/2, hepatocyte stability ([2]; human hepatocytes): 4.622 h
- remaining at 2 h, 1 µM ([2]; human, hepatocytes (cryopreserved, 100 donor pool), after 2 h): 70%
- half-life at 1 µM ([2]; human, hepatocytes (cryopreserved, 100 donor pool), read-out: t1/2, hepatocyte stability): 4.62 h
